Legend:
Type in all cases: biochemical
Plk1 = Plk1 (Homo sapiens, UniProt P53350); assay: AlphaScreen kinase assay, Plk1; conditions: read-out: IC50, activity toward kinase Plk1
Source text: AlphaScreen assay was used to screen additional kinases. The assay is similarly dependent on the phosphorylation of a peptide substrate. In this assay, an antibody that recognizes phosphorylated substrate is bound to an acceptor bead. The peptide substrate is attached to biotin, which binds to a donor head that contains streptavidin. Thus phosphorylated substrate is bound by antibody and streptavidin, bringing the donor and acceptor heads into close proximity when kinase is not inhibited. The donor produces singlet oxygen which results in emission from the acceptor when they are in close proximity. Conversely, when kinase is inhibited, the donor and acceptor beads are not associated and the emission from the acceptor is reduced.
AlphaScreen assays were done using compounds dissolved in DMSO to a concentration of 20 mM. The compounds were diluted accordingly to the desired final concentrations in each sample well, using 1:3 serial dilution for a total of 8 concentration points.

Stk6 = target: T1, Stk6 (Homo sapiens, UniProt O14965); assay: Z'-Lyte FRET kinase assay (Invitrogen), Stk6; conditions: read-out: IC50, activity toward kinase Stk6
T1 construct: purchased Invitrogen (Carlsbad, Calif.), screening service
T1 sequence (O14965 1-403): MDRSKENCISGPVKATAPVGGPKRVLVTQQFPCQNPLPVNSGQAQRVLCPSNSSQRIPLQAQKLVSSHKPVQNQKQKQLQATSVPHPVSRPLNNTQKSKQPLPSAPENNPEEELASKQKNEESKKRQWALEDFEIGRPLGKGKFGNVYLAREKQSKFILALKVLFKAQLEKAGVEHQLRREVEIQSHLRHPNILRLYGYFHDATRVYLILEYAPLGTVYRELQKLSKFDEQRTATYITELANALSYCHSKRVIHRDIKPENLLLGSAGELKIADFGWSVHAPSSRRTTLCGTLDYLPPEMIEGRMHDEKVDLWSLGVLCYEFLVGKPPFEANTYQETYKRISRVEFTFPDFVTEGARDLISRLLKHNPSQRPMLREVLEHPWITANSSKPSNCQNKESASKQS

Ret = target: T2, Ret (Homo sapiens, UniProt P07949); assay: AlphaScreen kinase assay, Ret; conditions: read-out: IC50, activity toward kinase Ret
T2 construct: P1378.pET-SF BI-PTP RET H661-R1012 HIS; made in house
T2 sequence (P07949 with tags, fused parts or gaps): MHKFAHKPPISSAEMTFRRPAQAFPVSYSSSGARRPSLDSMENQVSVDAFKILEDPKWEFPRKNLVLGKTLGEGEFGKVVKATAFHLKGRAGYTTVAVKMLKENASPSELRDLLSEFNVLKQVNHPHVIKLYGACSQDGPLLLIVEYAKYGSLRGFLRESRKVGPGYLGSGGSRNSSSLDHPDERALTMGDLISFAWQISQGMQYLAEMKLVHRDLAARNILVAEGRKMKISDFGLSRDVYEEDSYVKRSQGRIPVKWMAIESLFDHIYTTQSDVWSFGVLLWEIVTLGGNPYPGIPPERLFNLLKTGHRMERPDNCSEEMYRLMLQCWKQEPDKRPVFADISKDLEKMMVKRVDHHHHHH

Btk = target: T3, Btk (Homo sapiens, UniProt Q06187); assay: Z'-Lyte FRET kinase assay (Invitrogen), Btk; conditions: read-out: IC50, activity toward kinase Btk
T3 construct: purchased Invitrogen (assay run by Invitrogen)
T3 sequence (Q06187 whole entry): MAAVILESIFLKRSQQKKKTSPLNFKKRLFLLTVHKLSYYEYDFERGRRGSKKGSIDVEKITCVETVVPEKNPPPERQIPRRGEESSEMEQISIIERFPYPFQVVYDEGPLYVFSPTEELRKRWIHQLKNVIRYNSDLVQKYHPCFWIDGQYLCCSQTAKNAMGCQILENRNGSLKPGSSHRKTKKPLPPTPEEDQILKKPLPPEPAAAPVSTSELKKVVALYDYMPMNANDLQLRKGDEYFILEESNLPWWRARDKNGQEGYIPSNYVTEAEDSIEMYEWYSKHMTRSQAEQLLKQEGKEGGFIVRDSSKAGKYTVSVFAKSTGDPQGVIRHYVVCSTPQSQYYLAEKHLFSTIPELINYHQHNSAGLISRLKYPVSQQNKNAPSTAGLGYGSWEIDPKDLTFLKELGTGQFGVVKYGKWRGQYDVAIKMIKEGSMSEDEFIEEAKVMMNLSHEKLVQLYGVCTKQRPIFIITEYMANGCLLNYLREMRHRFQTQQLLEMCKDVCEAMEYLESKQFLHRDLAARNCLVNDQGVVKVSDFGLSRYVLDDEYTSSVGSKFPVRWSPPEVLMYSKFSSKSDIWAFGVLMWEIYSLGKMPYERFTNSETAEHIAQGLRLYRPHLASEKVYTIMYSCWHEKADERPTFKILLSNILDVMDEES

Gsk3β = Gsk3β (Homo sapiens, UniProt P49841); assay: AlphaScreen kinase assay, Gsk3β; conditions: read-out: IC50, activity toward kinase Gsk3β
Method in brief: (§1)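 Compounds in DMSO (20 mM stock) were diluted 1:3 across 8 points. Each kinase phosphorylated a biotin-labelled peptide. Signal generated when donor and acceptor beads came close via antibody binding of phosphorylated substrate.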

B-Raf V600E = target: T4, B-Raf V600E (Homo sapiens, UniProt P15056, V600E); assay: AlphaScreen kinase assay, B-Raf V600E; conditions: read-out: IC50, activity toward kinase B-Raf V600E
T4 construct: P4254. pFastBacBD-CDC37 BRAF D437-K722-X, V600E; His6 with pFastBac HT leader (TEV site) (N); made in house; host or cells: Sf9 (baculovirus; chaperone CDC37 co-expressed)
T4 sequence (P15056 with tags, fused parts or gaps V600E): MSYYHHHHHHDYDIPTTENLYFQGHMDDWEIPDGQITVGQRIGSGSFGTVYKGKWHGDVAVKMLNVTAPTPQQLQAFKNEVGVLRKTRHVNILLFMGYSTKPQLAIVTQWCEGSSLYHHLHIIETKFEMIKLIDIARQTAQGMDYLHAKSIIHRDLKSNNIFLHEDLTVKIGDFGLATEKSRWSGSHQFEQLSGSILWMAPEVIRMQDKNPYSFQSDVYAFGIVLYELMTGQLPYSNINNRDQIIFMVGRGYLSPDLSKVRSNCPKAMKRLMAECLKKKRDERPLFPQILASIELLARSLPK

MAP2K1 = target: T5, MAP2K1 (Homo sapiens, UniProt Q02750); assay: Z'-Lyte FRET kinase assay (Invitrogen), MAP2K1; conditions: read-out: IC50, activity toward kinase MAP2K1
T5 construct: purchased Invitrogen (assay run by Invitrogen)
T5 sequence (Q02750 whole entry): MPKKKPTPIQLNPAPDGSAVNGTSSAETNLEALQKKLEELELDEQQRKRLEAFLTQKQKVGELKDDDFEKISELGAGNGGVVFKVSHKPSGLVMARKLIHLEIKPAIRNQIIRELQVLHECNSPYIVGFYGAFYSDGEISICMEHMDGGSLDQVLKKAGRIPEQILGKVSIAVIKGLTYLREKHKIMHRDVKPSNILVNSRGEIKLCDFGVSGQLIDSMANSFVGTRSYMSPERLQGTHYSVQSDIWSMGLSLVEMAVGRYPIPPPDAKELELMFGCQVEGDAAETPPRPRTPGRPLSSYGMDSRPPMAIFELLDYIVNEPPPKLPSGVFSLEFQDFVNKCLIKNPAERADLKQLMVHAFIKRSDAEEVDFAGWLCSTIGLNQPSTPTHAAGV

Akt3 = Akt3 (Homo sapiens, UniProt Q9Y243); assay: AlphaScreen kinase assay, Akt3; conditions: read-out: IC50, activity toward kinase Akt3
Sequence of Akt3 (Q9Y243 whole entry): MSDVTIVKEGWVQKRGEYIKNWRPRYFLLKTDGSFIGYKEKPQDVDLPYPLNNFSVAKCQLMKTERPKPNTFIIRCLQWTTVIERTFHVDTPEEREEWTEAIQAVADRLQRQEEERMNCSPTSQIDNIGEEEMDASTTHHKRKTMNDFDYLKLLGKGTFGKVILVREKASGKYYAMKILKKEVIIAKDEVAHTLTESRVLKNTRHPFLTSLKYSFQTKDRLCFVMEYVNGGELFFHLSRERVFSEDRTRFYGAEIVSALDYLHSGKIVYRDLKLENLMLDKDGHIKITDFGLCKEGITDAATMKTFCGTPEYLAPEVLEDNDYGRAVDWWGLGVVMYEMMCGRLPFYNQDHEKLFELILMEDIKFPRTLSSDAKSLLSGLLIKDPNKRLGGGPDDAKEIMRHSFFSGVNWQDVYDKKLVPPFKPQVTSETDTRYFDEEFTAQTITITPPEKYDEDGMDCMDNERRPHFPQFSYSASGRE
Method in brief: as §1

FGFR1 = target: T6, FGFR1 (Homo sapiens, UniProt P11362, C488A/C584S); assay: AlphaScreen kinase assay, FGFR1; conditions: read-out: IC50, activity toward kinase FGFR
T6 construct: P1351.pET N6 BI-PTP FGFR A458-E765-X C488A, C584S; made in house; host or cells: E. coli (PTP1B co-expressed)

EphB2 = target: T7, EphB2 (Homo sapiens, UniProt P29323); assay: Z'-Lyte FRET kinase assay (Invitrogen), EphB2; conditions: read-out: IC50, activity toward kinase EphB2
T7 construct: purchased Invitrogen (assay run by Invitrogen)
T7 sequence (P29323 19-1055): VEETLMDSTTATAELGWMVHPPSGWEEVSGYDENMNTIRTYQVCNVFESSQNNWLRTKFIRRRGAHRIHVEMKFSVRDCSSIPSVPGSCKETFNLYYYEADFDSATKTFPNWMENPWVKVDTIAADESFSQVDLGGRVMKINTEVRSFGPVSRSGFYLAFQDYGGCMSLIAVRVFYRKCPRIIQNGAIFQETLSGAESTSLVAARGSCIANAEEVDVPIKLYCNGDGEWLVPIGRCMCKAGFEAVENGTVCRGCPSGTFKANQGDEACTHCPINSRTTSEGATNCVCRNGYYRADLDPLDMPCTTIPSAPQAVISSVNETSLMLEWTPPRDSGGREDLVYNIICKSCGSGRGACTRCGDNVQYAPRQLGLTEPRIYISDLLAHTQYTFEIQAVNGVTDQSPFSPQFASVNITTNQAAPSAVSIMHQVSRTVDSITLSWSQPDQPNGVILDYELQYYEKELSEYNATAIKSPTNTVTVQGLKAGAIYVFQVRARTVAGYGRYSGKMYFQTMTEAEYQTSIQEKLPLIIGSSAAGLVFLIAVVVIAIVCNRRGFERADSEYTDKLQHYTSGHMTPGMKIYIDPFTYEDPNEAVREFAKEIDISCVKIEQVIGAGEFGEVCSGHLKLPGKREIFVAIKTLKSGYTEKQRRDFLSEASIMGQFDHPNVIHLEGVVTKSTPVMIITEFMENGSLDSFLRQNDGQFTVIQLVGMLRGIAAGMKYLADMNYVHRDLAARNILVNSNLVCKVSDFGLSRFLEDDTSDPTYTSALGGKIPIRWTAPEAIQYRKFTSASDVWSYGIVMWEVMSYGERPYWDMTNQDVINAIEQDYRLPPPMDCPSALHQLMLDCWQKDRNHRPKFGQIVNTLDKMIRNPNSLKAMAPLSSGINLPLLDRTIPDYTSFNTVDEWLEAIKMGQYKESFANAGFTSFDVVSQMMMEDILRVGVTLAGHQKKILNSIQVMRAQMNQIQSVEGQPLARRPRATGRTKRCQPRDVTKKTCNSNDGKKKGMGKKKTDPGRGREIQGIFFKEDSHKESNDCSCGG
Source text: The effect of potential modulators of kinase activity can be measured in a variety of different assays known in the art. For example, direct radiometric, indirect FRET or AlphaScreen assays may be used to assess the level of phosphorylation of a substrate in the presence of test compounds in order to determine the inhibitory affect of the compound on the kinase. Invitrogen (Carlsbad, Calif.) uses a FRET based assay for Btk, EGFR, EphB2, Flt3, lrak4, Kdr, MAP2K1, MAPKAPK2, PDGFRB, PKC theta, Stk6 and Yes. For these assays, compounds of the invention were screened by Invitrogen using Z′-Lyte™ kinase assay.
Briefly, the Invitrogen kinase assay involves use of a specific peptide substrate optimized for each kinase, containing a fluorophore at each end that make up the FRET pair. The peptide sensitivity to proteolytic cleavage depends on phosphorylation of the peptide. Non-phosphorylated peptide is cleaved by a protease while peptide phosphorylated by the kinase is not cleaved. Cleavage of the peptide disrupts the FRET between the donor (coumarin) and acceptor (fluorescein) fluorophores, resulting in an increase in the ratio of donor emission to acceptor emission. The emission ratio of coumarin to fluorescein is used to assess the reaction progress. The extent of phosphorylation is determined from the emission ratio, which is low when the kinase is active (phosphorylated peptide is not cleaved, FRET pair connected) or higher for inhibited kinase (non-phosphorylated peptide is cleaved, FRET pair separated). Thus, the assay involves a kinase reaction in the presence of varying concentrations of a given compound, a development reaction with site specific protease, and detection of the fluorescent emission ratio of coumarin and fluorscein. […] Reaction conditions for each kinase are determined to provide optimal reaction times, incubation temperature, kinase and ATP concentrations. Test samples are made up in 1× kinase buffer (50 mM HEPES pH 7.5, 50 mM MgCl2, 5 mM EGTA, 0.05% BRIJ-35) and compound at desired concentration prepared in DMSO such that the final DMSO is 1%. […] Typically, assay plates are prepared to 10 μl final volume per sample, adding 2.5 μl of compound at 4× the desired concentration in 4% DMSO (serial dilution of compound provides concentration curve), 5 μl of the desired kinase mixed with Z′-LYTE™ peptide substrate (2× in 2× kinase buffer, final peptide at 2 μM), and 2.5 μl of 4×ATP solution. All kinase except for MAP2K1 were at 10 μM ATP in the kinase reaction, while MAP2K1 was at 100 μM. Samples are mixed and the kinase reaction is incubated 1 hour at room temperature, after which 5 μl of development solution is added and mixed. After incubation for another 1 hour at room temperature, 5 μl of stop reagent is added to each sample and mixed. The fluorescence signals are measured to determine the emission ratio.

Kdr = target: T8, Kdr (Homo sapiens, UniProt P35968); assay: Z'-Lyte FRET kinase assay (Invitrogen), Kdr; conditions: read-out: IC50, activity toward kinase Kdr
T8 construct: purchased Invitrogen (assay run by Invitrogen)
T8 sequence (P35968 20-1356): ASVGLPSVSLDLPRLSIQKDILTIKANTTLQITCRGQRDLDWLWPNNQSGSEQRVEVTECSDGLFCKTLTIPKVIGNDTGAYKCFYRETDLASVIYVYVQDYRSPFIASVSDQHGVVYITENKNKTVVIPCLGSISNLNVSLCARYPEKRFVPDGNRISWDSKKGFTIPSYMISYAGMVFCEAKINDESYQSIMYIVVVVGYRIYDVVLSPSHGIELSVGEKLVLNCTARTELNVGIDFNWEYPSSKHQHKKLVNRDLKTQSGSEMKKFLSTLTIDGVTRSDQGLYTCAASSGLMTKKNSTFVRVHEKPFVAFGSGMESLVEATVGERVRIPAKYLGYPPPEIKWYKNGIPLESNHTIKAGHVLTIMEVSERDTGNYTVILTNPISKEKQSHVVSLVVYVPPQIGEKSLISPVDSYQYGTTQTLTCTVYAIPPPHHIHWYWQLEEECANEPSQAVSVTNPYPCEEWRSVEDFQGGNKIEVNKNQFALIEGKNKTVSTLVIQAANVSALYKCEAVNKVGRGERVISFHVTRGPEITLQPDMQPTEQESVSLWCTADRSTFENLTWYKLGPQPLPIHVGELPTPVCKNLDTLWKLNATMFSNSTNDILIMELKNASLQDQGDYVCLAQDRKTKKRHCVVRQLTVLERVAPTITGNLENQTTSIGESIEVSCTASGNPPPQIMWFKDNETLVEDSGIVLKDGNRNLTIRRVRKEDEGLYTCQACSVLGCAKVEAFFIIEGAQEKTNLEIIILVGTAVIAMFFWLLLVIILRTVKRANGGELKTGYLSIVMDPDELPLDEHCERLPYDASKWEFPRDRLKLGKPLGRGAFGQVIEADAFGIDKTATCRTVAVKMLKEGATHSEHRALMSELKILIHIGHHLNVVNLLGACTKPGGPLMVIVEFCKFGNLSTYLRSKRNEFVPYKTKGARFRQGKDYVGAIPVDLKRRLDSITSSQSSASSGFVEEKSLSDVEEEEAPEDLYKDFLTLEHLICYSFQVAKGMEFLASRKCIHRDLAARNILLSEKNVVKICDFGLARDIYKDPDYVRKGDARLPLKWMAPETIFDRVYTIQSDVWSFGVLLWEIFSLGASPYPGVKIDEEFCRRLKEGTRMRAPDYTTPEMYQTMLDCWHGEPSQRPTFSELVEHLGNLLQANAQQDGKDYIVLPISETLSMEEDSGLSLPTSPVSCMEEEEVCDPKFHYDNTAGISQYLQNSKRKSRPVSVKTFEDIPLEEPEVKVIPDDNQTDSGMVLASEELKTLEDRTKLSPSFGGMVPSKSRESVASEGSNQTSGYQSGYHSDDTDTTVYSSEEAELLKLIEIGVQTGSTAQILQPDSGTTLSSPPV

Yes = target: T9, Yes (Homo sapiens, UniProt P07947); assay: Z'-Lyte FRET kinase assay (Invitrogen), Yes; conditions: read-out: IC50, activity toward kinase Yes
T9 construct: purchased Invitrogen (Carlsbad, Calif.), screening service
T9 sequence (P07947 whole entry): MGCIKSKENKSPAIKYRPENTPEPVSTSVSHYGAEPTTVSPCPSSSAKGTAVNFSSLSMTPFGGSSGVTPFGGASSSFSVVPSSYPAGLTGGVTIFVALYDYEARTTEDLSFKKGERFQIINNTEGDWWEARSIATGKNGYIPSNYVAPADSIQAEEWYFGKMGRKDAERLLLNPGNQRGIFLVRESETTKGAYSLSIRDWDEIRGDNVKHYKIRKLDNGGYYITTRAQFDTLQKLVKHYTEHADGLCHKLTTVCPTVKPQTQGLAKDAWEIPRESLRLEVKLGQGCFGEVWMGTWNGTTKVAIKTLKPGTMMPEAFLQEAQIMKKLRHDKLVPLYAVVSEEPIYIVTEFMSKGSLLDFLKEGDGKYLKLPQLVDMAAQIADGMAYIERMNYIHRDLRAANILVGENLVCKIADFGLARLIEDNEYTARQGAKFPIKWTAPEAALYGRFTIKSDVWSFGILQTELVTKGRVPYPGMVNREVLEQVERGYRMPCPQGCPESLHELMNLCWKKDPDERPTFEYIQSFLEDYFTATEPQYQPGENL
Method in brief: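 Under a compound concentration curve, the kinase acted on a dual-labelled peptide at 2 μM with ATP at 10 μM for one hour at ambient temperature (buffer pH 7.5, 1% DMSO). Phosphorylation extent came from the emission ratio after protease development.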

Flt1 = target: T10, Flt1 (Homo sapiens, UniProt P17948); assay: AlphaScreen kinase assay, Flt1; conditions: read-out: IC50, activity toward kinase Flt1
T10 construct: P1826.pETN6 BI-PTP FLT1 M799-D1165-X WT; His6 (N); made in house; host or cells: E. coli (PTP1B co-expressed)
T10 sequence (P17948 with tags, fused parts or gaps): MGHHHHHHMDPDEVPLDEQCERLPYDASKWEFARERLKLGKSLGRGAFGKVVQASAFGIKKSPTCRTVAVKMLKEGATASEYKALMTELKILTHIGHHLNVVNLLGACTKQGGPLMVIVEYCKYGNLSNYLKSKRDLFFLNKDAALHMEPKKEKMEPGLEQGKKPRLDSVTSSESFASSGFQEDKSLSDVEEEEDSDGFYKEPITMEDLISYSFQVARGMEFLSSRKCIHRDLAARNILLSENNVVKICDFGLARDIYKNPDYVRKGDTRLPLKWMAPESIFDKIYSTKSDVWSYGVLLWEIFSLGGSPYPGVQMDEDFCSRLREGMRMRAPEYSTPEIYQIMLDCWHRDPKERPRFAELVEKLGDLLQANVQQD

Fak = target: T11, Fak (Homo sapiens, UniProt Q05397); assay: AlphaScreen kinase assay, Fak; conditions: read-out: IC50, activity toward kinase Fak
T11 construct: P1358.pFastBacHtb FAK S411-Q686-X; His6 with pFastBacHTb leader (TEV site) (N); made in house; host or cells: Sf9 (baculovirus)
T11 sequence (Q05397 411-686): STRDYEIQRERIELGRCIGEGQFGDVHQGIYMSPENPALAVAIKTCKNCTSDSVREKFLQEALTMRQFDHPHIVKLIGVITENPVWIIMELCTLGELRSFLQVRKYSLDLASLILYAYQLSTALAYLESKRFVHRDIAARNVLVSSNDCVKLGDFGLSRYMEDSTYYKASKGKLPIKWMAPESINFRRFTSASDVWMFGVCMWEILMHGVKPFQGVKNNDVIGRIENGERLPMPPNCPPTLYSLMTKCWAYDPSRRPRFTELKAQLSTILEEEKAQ

Kit = target: T12, Kit (Homo sapiens, UniProt P10721); assay: AlphaScreen kinase assay, Kit; conditions: read-out: IC50, activity toward kinase Kit
T12 construct: P1332.N6 BI PTP KIT M552-K948-X COD; His6 (N); made in house; host or cells: E. coli (PTP1B co-expressed)
T12 sequence (P10721 with tags, fused parts or gaps): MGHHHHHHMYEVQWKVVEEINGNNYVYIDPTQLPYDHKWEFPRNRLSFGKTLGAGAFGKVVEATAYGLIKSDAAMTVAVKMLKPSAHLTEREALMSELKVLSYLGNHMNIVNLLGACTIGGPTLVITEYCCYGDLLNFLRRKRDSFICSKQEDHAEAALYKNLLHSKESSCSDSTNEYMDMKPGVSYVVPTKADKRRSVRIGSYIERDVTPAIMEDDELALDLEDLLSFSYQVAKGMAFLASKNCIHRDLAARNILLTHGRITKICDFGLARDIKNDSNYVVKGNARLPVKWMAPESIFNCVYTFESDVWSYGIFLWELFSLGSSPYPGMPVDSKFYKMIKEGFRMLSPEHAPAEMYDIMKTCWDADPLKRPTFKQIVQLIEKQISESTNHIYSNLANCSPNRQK

Pyk2 = target: T13, Pyk2 (Homo sapiens, UniProt Q14289); assay: AlphaScreen kinase assay, Pyk2; conditions: read-out: IC50, activity toward kinase Pyk2
T13 construct: purchased Upstate Biotechnology

Measured: IC50

Sequence of Plk1 (P53350 whole entry): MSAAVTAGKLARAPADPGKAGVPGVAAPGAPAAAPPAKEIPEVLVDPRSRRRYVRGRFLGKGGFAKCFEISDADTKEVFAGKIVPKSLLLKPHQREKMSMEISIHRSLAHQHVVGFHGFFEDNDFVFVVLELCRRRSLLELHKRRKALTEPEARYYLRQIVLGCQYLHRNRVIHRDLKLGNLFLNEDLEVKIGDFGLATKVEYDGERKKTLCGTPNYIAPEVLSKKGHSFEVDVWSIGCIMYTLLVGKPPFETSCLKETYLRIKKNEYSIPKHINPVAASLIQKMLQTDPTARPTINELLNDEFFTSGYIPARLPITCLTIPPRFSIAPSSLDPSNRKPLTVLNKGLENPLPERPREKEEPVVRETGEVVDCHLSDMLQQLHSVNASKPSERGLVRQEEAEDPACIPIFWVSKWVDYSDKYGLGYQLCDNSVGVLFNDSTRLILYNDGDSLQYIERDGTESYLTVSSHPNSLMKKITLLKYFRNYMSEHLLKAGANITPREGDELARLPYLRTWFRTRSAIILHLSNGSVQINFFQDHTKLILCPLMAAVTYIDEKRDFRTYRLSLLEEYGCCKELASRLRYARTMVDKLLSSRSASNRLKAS

Nc1cccc(-c2ccnc3[nH]cc(C(=O)c4ccc(Cl)cc4)c23)c1 [Compound P-0148]
≤ 10 µM: Plk1 | Stk6 | Ret | Btk | Gsk3β | B-Raf V600E

COc1cccc(C(=O)c2c[nH]c3nccc(-c4cccc(N)c4)c23)c1 [Compound P-0099]
≤ 10 µM: Plk1 | Stk6 | Ret | MAP2K1 | Akt3 | B-Raf V600E | FGFR1

Nc1cccc(-c2ccnc3[nH]cc(C(=O)c4cccc(Cl)c4Cl)c23)c1 [Compound P-0075]
≤ 10 µM: Plk1 | Ret | Btk | EphB2 | Kdr | B-Raf V600E | Yes

Cc1occc1Sc1c[nH]c2ncccc12 [Compound P-0018]
≤ 10 µM: Plk1 | Stk6 | Flt1 | MAP2K1 | Fak | Kit | Pyk2 | Kdr

Cc1ccccc1C(=O)c1c[nH]c2nccc(-c3cccnc3)c12 [Compound P-0083]
≤ 10 µM: Plk1 | Ret | Btk | EphB2 | Yes
